Assay results published in patent US20230339882A1, “SHP2 INHIBITOR AND COMPOSITION AND APPLICATION THEREOF” (Betta Pharmaceuticals Co., Ltd., priority 2020, published 2023).

Key:
SHP2 = SHP2 (Homo sapiens (Human), UniProt Q06124); assay: SHP2 allosteric inhibitory enzyme activity assay (DiFMUP fluorescence); type: biochemical; conditions: read-out: SHP2 enzymatic activity IC50
Excerpt: Example A: SHP2 Allosteric Inhibitory Enzyme Activity Assay
SHP2 is allosterically activated by binding of a bis-tyrosyl-phosphorylated peptide to its Src homology 2 (SH2) domain. This later activation step results in the release of the autoinhibitory interface of SHP2, which in turn activates the SHP2 protein tyrosine phosphatase (PTP) and is available for substrate recognition and reaction catalysis. The catalytic activity of SHP2 was monitored using the surrogate DiFMUP in a rapid fluorescence assay format.
experiment procedure: • (1) Compound preparation: • The compounds of the present invention (10 mM stock solution) were diluted to appropriate times with 100% DMSO, and the final test concentrations of the compounds of the present invention were 10 µM, 3.3333 µM, 1.1111 µM, 0.3704 µM, 0.1235 µM, 0.0412 µM, 0.0137 µM, 0.0046 µM, 0.0015 µM, 0.00 µM; • (2) Prepare the enzyme reaction working solution: • Perform SHP2 enzymatic assays in 96-well black polystyrene plates (flat bottom, low flange, non-binding surface) (Perki Elmer, Cat#6005270) at room temperature using a final reaction volume of 50 µL and the following assay buffer conditions: 60 mM HEPES, 75 mM NaCl, 75 mM KCl, 0.05% BRIJ-35, 1 mM EDTA, 5 mM DTT. • (3) Enzyme-catalyzed reaction and data monitoring: • Add the compound of the present invention to the corresponding 96-well plate, and set the blank test well without compound and enzyme only with buffer. Thaw SHP2 Activating Peptide (IRS1_pY1172(dPEG8)pY1222) on ice, add 25 µM to each well, then add 0.2 ng of SHP2 protein sample to the corresponding well plate and incubate at room temperature for 1 hour. The surrogate substrate DiFMUP (Invitrogen, Cat #D6567) was added to the reaction and allowed to react for 1 hour at room temperature. Fluorescence signals were monitored using a microplate reader (Envision, Perki Elmer) using excitation and emission wavelengths of 340 nm and […], respectively. • (4) Data analysis: • Calculation Formula: • [formula]
Among them: Conversion_sample is the conversion rate reading of the sample; Conversion_min is the average value of blank control wells, representing the conversion rate readings of wells without enzymatic activity; Conversion_max is the mean ratio of positive control wells, representing the conversion rate readings of wells without compound inhibition. The log(inhibitor) vs. response-Variable slope of the analysis software GraphPad Prism was used to fit the dose-response curve, and the IC50 value of the compound for the enzymatic activity was calculated.

[1] = system: lung cancer cells NCI-H358; assay: Cell proliferation assay, CELL TITER-GLO (CTG) luminescence, NCI-H358; type: cell-based; conditions: cultured for 96 hrs
Description: (§1) Example B: Cell Proliferation Assay
(§2) The effects of the compounds of the invention on the proliferation of leukemia cells MV-4-11 and lung cancer cells NCI-H358 were evaluated using in vitro cell assays. The detection method used in the experiment is the CELL TITER-GLO (CTG) luminescence method, which can detect the number of viable cells by quantifying ATP. Because ATP participates in a variety of enzymatic reactions in vivo, it is an indicator of the metabolism of living cells, and its content directly reflects the number and state of cells. During the experiment, CellTiter-Glo™ reagent was added to the cell culture medium to measure the luminescence value. The value is proportional to the amount of ATP, and ATP is positively related to the number of living cells, so the cell viability can be examined by detecting the ATP content.
(§3) experiment procedure: • (1) Cell plating: • Take a bottle of MV-4-11 cells in logarithmic growth phase, resuspend the cells by centrifugation and count them. After adjusting the cell density, they were seeded into a 96-well plate (Corning #3917). After culturing in a 5% CO2 incubator for 24 hrs, the compound of the present invention was added for treatment; • Take a bottle of NCI-H358 cells in logarithmic growth phase, digest and resuspend the cells, count them, adjust the cell density, and inoculate them into a 96-well transparent ultra-low adsorption cell culture plate (Corning #3474), inoculate 2000 cells per well. The plate was placed in an incubator at 37° C. and 5% CO2 for 24 hrs, and then the compound of the present invention was added for treatment; • (2) Cell compound treatment: • An appropriate amount of the compound of the present invention was prepared for cell treatment. The final concentration of the compound from high to low was 1000 nM, 333.3 nM, 111.1 nM, 37.04 nM, 12.35 nM, 4.115 nM, 1.372 nM, 0.4572 nM, 0.1524 nM, and 0 nM. The plate was placed in a 37° C., 5% CO2 incubator for 120 hrs. Only adding medium without cell wells was set as the blank group; the group with compound concentration of 0 nM was the zero-adjusting group. • (3) CTG detection: • After NCI-H358 cells were cultured for 96 hrs, 50 µL of CellTiter-Glo® Luminescent Cell Viability Assay solution was added to each well, shaken gently for 2 mins, and incubated at room temperature for 10 mins. The cell reaction system was transferred to a white-bottomed 96-well plate. Read the detection value of each well on a multi-function microplate reader. • After MV-4-11 cells were cultured for 120 hrs, 50 µL of CellTiter-Glo® Luminescent Cell Viability Assay solution was added to each well, gently shaken for 2 mins, and incubated at room temperature for 10 mins. Check the value. • (4) Data analysis: • Calculate the inhibition rate from the luminescence value readings, • [formula]
(§4) The log(inhibitor) vs. response-Variable slope of GraphPad Prism was fitted to dose-response curves and IC50s of compounds that inhibited cell proliferation were calculated.

leukemia cells MV-4-11 = assay: Cell proliferation assay, CELL TITER-GLO (CTG) luminescence, MV-4-11; type: cell-based
Description: as §1, §2, §3, §4

[2] = Homo sapiens, NCI-H358, ultra-low adsorption plate
[3] = Homo sapiens, MV4-11, cultured for 120 hrs

IC50 (SHP2) [nM]	IC50 [1, 2] [nM]	IC50 (leukemia cells MV-4-11; [3]) [nM]	Structure (SMILES)	IC50 ([1]; ultra-low adsorption plate) [nM]	IC50 (leukemia cells MV-4-11; cultured for 120 hrs) [nM]
0.9	4.9	2.6	COc1ccc(OCC#Cc2cnc(N3CCC4(CC3)Cc3ccccc3[C@H]4N)c(CO)n2)cc1 [Compound A09, (S)-(3-(1-amino-1,3-dihydrospiro [indene-2,4′-piperidine]-1′-yl)-6-(3-(4-methoxyphenoxy)prop-1-yn-1-yl)pyrazin-2-yl) methanol]		
5	36	11	N[C@@H]1c2ccccc2CC12CCN(c1ncc(C#CCNc3ccc(C(F)(F)F)nc3)nc1CO)CC2 [Compound A63, (S)-(3-(1-amino-1,3-dihydrospiro[indene-2,4′-piperidin]-1′-yl)-6-(3-( (6-(trifluoromethyl)pyridin-3-yl)amino)prop-1-yn-1-yl)pyrazin-2-yl)methanol]		
2.1	26	8.6	CNc1ncc(OCC#Cc2cnc(N3CCC4(CC3)Cc3ccccc3[C@H]4N)c(CO)n2)cn1 [Compound A68, (S)-(3-(1-amino-1,3-dihydrospiro[indene-2,4′-piperidin]-1′-yl)-6-(3-( (2-(methylAmino)pyrimidin-5-yl)oxy)prop-1-yn-1-yl)pyrazin-2-yl) methanol]		
3.1	3.4	1.1	Cc1nc2cc(OCC#Cc3cnc(N4CCC5(CC4)Cc4ccccc4[C@H]5N)c(CO)n3)ccc2[nH]1 [Compound A73, (S)-(3-(1-amino-1,3-dihydrospiro[indene-2,4′-piperidin]-1′-yl)-6-(3-( (2-methyl-1H-Benzo[d]imidazol-5-yl)oxy)prop-1-yn-1-yl)pyrazin-2-yl)methanol]		
3.4			N[C@@H]1c2ccccc2CC12CCN(c1ncc(C#CCOc3ccc(C(=O)NC4CC4)cc3)nc1CO)CC2 [Compound A76, (S)-4-((3-(5-(1-amino-1,3-dihydrospiro[indene-2,4′-piperidin]-1′-yl)-6-(hydroxymethyl)pyrazin-2-yl)prop-2-yn-1-yl)oxy)-N-cyclopropyl benzamide]	19	3.3

Further lines, the compound ahead of its results:

Structure (SMILES)	IC50 (SHP2) [nM]	IC50 [1, 2] [nM]	IC50 (leukemia cells MV-4-11; [3]) [nM]	IC50 ([1]; ultra-low adsorption plate) [nM]	IC50 (leukemia cells MV-4-11; cultured for 120 hrs) [nM]
CC(=O)Nc1ccc(OCC#Cc2cnc(N3CCC4(CC3)Cc3ccccc3[C@H]4N)c(CO)n2)cc1 [Compound A08, (S)-N-(4-((3-(5-(1-amino-1,3-dihydrospiro [indene-2,4′-piperidine]-1′-yl) -6-(hydroxymethyl)pyrazin-2-yl)prop-2-yn-1-yl)oxy)phenyl) acetamide]	3.3	3.8	2.1		
CC(=O)N1CCN(c2ccc(OCC#Cc3cnc(N4CCC5(CC4)Cc4ccccc4[C@H]5N)c(CO)n3)cc2)CC1 [Compound A21, (S)-1-(4-(4-(3-(5-(1-amino-1,3-dihydrospiro [indene-2,4 ‘-piperidine]-1′-yl) -6-(hydroxymethyl)pyrazin-2-yl)prop-2-yn-1-yl)oxy)piperazin-1-yl)ethane-1-one]	2.1			12	11
COc1ccc(NCC#Cc2cnc(N3CCC4(CC3)Cc3ccccc3[C@H]4N)c(CO)n2)cc1OC [Compound A47, (S)-(3-(1-amino-1,3-dihydrospiro [indene-2,4′-piperidin]-1′-yl)-6-(3-((3,4-dimethoxyphenyl)amino)prop-1-yn-1-yl)pyrazin-2-yl)]	4			48	17
COc1cc(OCC#Cc2cnc(N3CCC4(CC3)Cc3ccccc3[C@H]4N)c(CO)n2)ccn1 [Compound A49, (S)-(3-(1-amino-1,3-dihydrospiro[indene-2,4′-piperidin]-1′-yl)-6-(3-((2-methoxypyridine-4-yl)oxy)prop-1-yn-1-yl)pyrazin-2-yl)methanol]	1.4	8.5	6.7		
N[C@@H]1c2ccccc2CC12CCN(c1ncc(C#CCOc3ccc4c(c3)CCNC4=O)nc1CO)CC2 [Compound A52, (S)-6-((3-(5-(1-amino-1,3-dihydrospiro[indene-2,4′-piperidin]-1′-yl)-6-(hydroxymethyl)pyrazin-2-yl)prop-2-yn-1-yl)oxy)-3,4-dihydroisoquinolin-1(2H)-one]	1.6	4.6	1.5		
N#Cc1cccc(OCC#Cc2cnc(N3CCC4(CC3)Cc3ccccc3[C@H]4N)c(CO)n2)c1 [Compound A53, (S)-3-((3-(5-(1-amino-1,3-dihydrospiro[indene-2,4′-piperidin]-1′-yl)-6-(hydroxymethyl)pyrazin-2-yl)prop-2-yn-1-yl)oxy)benzonitrile]	3.3	27	8.1		
COc1ccc2c(c1)[C@@H](N)C1(CCN(c3ncc(C#CCOc4ccc(C(N)=O)cc4)nc3CO)CC1)C2 [Compound A58, (S)-4-((3-(5-(1-amino-6-methoxy-1,3-dihydrospiro[indene-2,4′-piperidin]-1′-yl)-6-(hydroxymethyl)pyrazin-2-yl)prop-2-yn-1-yl)oxy)benzamide]	1.5	4	0.8		
CC(=O)Nc1cccc(NCC#Cc2cnc(N3CCC4(CC3)Cc3ccccc3[C@H]4N)c(CO)n2)c1 [Compound A65, (S)-N-(3-((3-(5-(1-amino-1,3-dihydrospiro[indene-2,4′-piperidin]-1′-yl)-6-(hydroxylmethyl)pyrazin-2-yl)prop-2-yn-1-yl)amino)phenyl)a cetamide]	3.5	25	2.8		
Cc1cc(OCC#Cc2cnc(N3CCC4(CC3)Cc3ccccc3[C@H]4N)c(CO)n2)ccc1C(N)=O [Compound A74, (S)-4-((3-(5-(1-amino-1,3-dihydrospiro[indene-2,4′-piperidin]-1′-yl)-6-(hydroxymethyl)pyrazin-2-yl)prop-2-yn-1-yl)oxy)-2-methylbenzamide]	1.1	6.4	1.7		
N[C@@H]1c2ccccc2CC12CCN(c1ncc(C#CCOc3ccc(O)cn3)nc1CO)CC2 [Compound A75, (S)-6-((3-(5-(1-amino-1,3-dihydrospiro[indene-2,4′-piperidin]-1′-yl)-6-(hydroxymethyl)pyrazin-2-yl)prop-2-yn-1-yl)oxy)pyridin-3-ol]	7.8	78	7.3		
Cn1nccc1Nc1ccc(OCC#Cc2cnc(N3CCC4(CC3)Cc3ccccc3[C@H]4N)c(CO)n2)cc1 [Compound A77]	5.9			36	11
